Key:
SETVI (Foxtail, Green) = test: Postemergence herbicidal evaluation; format: in vivo, Setaria viridis; conditions: postemergence
Method in brief: (§1)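 Herbicidal effect was judged by eye on a 0–9 scale covering stand, vigor, deformity, size and chlorosis, compared with controls, four to five weeks after seedlings about two weeks old were sprayed (40 psi, ~0.0156–0.500 kg/ha).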

[1] = system: ECHORC (Watergrass (Calif.)); test: Preemergence weed control under flooded paddy conditions; format: in vivo, Echinochloa oryzoides; conditions: rated 3-4 weeks after treatment
Method in brief: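 Seeds or propagules sown in top 0.5 cm of silt loam soil, flooded 1.5 to 3 cm above surface throughout. Compound in 50/50 v/v aqueous/acetone pipetted into flood water at about 0.0313 to 0.500 kg/ha. Visual 0-9 rating versus control after three to four weeks in greenhouse.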

AMBEL (Ragweed, Common) = test: Preemergence herbicidal evaluation; format: in vivo, Ambrosia artemisifolia; conditions: rated 4-5 weeks after treatment
Method in brief: (§2)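 Greenhouse preemergence test: seed-soil mix sown on ~1 inch soil; aqueous acetone spray at equivalent of ~0.0156–0.500 kg/ha; greenhouse-held and watered; scored 0–9 visually at 4–5 weeks.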

[2] = system: IPOHE (Morningglory, Ivyleaf); test: Postemergence herbicidal evaluation; format: in vivo, Ipomoea hederacea; conditions: postemergence
Method in brief: as §1

[3] = system: GLXMAW (Soybean, Williams); test: Postemergence herbicidal evaluation; format: in vivo, Glycine max, (L.) Merr. cv Williams; conditions: postemergence
Method in brief: as §1

[4] = system: IPOHE (Morningglory, Ivyleaf); test: Preemergence herbicidal evaluation; format: in vivo, Ipomoea hederacea; conditions: rated 4-5 weeks after treatment
Method in brief: as §2

ABUTH (Velvetleaf) [5] = test: Preemergence herbicidal evaluation; format: in vivo, Abutilon theophrasti; conditions: rated 4-5 weeks after treatment
Method in brief: as §2

CYPIR (Rice Flatsedge) = test: Postemergence weed control under flooded paddy conditions; format: in vivo, Cyperus iria; conditions: postemergence weeds, rated 3 to 4 weeks after treatment
Method in brief: (§3)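 With weeds 3 to 5 cm tall and rice at the 1.5 to 2.5 leaf stage, containers were flooded and water held 1.5 to 3 cm above soil. Compounds in 50/50 v/v aqueous/acetone went into the flood water at about 0.0313 to 0.500 kg/ha a.i. Effects were visually rated 0–9 against controls after three to four weeks in the greenhouse.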

ABUTH (Velvetleaf) [6] = test: Postemergence herbicidal evaluation; format: in vivo, Abutilon theophrasti; conditions: postemergence
Method in brief: as §1

[7] = system: ECHORC (Watergrass (Calif.)); test: Postemergence weed control under flooded paddy conditions; format: in vivo, Echinochloa oryzoides; conditions: postemergence weeds, rated 3 to 4 weeks after treatment
Method in brief: as §3

CYPSE (Flatsedge) = test: Preemergence weed control under flooded paddy conditions; format: in vivo, Cyperus serotinus; conditions: rated 3-4 weeks after treatment
Method in brief: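 First, seeds or propagules go into the top 0.5 cm of silt loam; next, water is held 1.5 to 3 cm over the soil; then compound (50/50 acetone/water) is pipetted into it at about 0.0313 to 0.500 kg/ha; finally plants are rated visually 0-9 after three to four weeks.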

ECHCG (Barnyardgrass) = test: Preemergence herbicidal evaluation; format: in vivo, Echinochloa crus-galli; conditions: rated 4-5 weeks after treatment
Method in brief: as §2

CASOB (Sicklepod) = test: Preemergence herbicidal evaluation; format: in vivo, Cassia obtusifolia; conditions: rated 4-5 weeks after treatment
Method in brief: as §2

ZEAMX (Corn, Field) = test: Postemergence herbicidal evaluation; format: in vivo, Zea mays; conditions: postemergence
Method in brief: as §1

CC(C)C[C@@H](C(=O)O)N1C(=O)CSC1=Nc1cc(-n2c(=O)cc(C(F)(F)F)n(C)c2=O)c(F)cc1Cl [Compound 71, α-Isobutyl-2-{{2-chloro-5-[3,6-dihydro-3-methyl-2,6-dioxo-4-(trifluoromethyl)-1(2H)-pyrimidinyl]-4-fluorophenyl}imino}-4-oxo-3-thiazolidineacetic acid, L-]
SETVI herbicidal rating (SETVI (Foxtail, Green); rate 0.0158 kg/ha): 4.0
SETVI herbicidal rating (SETVI (Foxtail, Green); rate 0.0315 kg/ha): 7.0
SETVI herbicidal rating (SETVI (Foxtail, Green); rate 0.0630 kg/ha): 9.0
ECHORC herbicidal effect rating ([1]; 0.1250 kg/ha): 0.0
ECHORC herbicidal effect rating ([1]; 0.2500 kg/ha): 7.0
Preemergence herbicidal rating AMBEL (AMBEL (Ragweed, Common); rate 0.0156 kg/ha): 1.0
Preemergence herbicidal rating AMBEL (AMBEL (Ragweed, Common); rate 0.0313 kg/ha): 2.0
Preemergence herbicidal rating AMBEL (AMBEL (Ragweed, Common); rate 0.0625 kg/ha): 7.0
Preemergence herbicidal rating AMBEL (AMBEL (Ragweed, Common); rate 0.1250 kg/ha): 9.0
Preemergence herbicidal rating AMBEL (AMBEL (Ragweed, Common); rate 0.2500 kg/ha): 9.0
IPOHE herbicidal rating ([2]; rate 0.0158 kg/ha): 9.0
IPOHE herbicidal rating ([2]; rate 0.0315 kg/ha): 9.0
IPOHE herbicidal rating ([2]; rate 0.0630 kg/ha): 9.0
GLXMAW herbicidal rating ([3]; rate 0.0158 kg/ha): 6.5
GLXMAW herbicidal rating ([3]; rate 0.0315 kg/ha): 7.5
GLXMAW herbicidal rating ([3]; rate 0.0630 kg/ha): 7.5
Preemergence herbicidal rating IPOHE ([4]; rate 0.0156 kg/ha): 0.0
Preemergence herbicidal rating IPOHE ([4]; rate 0.0313 kg/ha): 0.0
Preemergence herbicidal rating IPOHE ([4]; rate 0.0625 kg/ha): 0.0
Preemergence herbicidal rating IPOHE ([4]; rate 0.1250 kg/ha): 9.0
Preemergence herbicidal rating IPOHE ([4]; rate 0.2500 kg/ha): 9.0
Preemergence herbicidal rating ABUTH (ABUTH (Velvetleaf) [5]; rate 0.0156 kg/ha): 1.0
Preemergence herbicidal rating ABUTH (ABUTH (Velvetleaf) [5]; rate 0.0313 kg/ha): 9.0
Preemergence herbicidal rating ABUTH (ABUTH (Velvetleaf) [5]; rate 0.0625 kg/ha): 9.0
Preemergence herbicidal rating ABUTH (ABUTH (Velvetleaf) [5]; rate 0.1250 kg/ha): 9.0
Preemergence herbicidal rating ABUTH (ABUTH (Velvetleaf) [5]; rate 0.2500 kg/ha): 9.0
Herbicidal rating CYPIR (CYPIR (Rice Flatsedge); Rate 0.1250 kg/ha): 3.0
Herbicidal rating CYPIR (CYPIR (Rice Flatsedge); Rate 0.2500 kg/ha): 7.0
ABUTH herbicidal rating (ABUTH (Velvetleaf) [6]; rate 0.0158 kg/ha): 9.0
ABUTH herbicidal rating (ABUTH (Velvetleaf) [6]; rate 0.0315 kg/ha): 9.0
ABUTH herbicidal rating (ABUTH (Velvetleaf) [6]; rate 0.0630 kg/ha): 9.0
Herbicidal rating ECHORC ([7]; Rate 0.1250 kg/ha): 0.0
Herbicidal rating ECHORC ([7]; Rate 0.2500 kg/ha): 7.0
CYPSE herbicidal effect rating (CYPSE (Flatsedge); 0.1250 kg/ha): 3.0
CYPSE herbicidal effect rating (CYPSE (Flatsedge); 0.2500 kg/ha): 3.0
Preemergence herbicidal rating ECHCG (ECHCG (Barnyardgrass); rate 0.0156 kg/ha): 0.0
Preemergence herbicidal rating ECHCG (ECHCG (Barnyardgrass); rate 0.0313 kg/ha): 0.0
Preemergence herbicidal rating ECHCG (ECHCG (Barnyardgrass); rate 0.0625 kg/ha): 0.0
Preemergence herbicidal rating ECHCG (ECHCG (Barnyardgrass); rate 0.1250 kg/ha): 2.0
Preemergence herbicidal rating ECHCG (ECHCG (Barnyardgrass); rate 0.2500 kg/ha): 4.0
Preemergence herbicidal rating CASOB (CASOB (Sicklepod); rate 0.0156 kg/ha): 0.0
Preemergence herbicidal rating CASOB (CASOB (Sicklepod); rate 0.0313 kg/ha): 0.0
Preemergence herbicidal rating CASOB (CASOB (Sicklepod); rate 0.0625 kg/ha): 0.0
Preemergence herbicidal rating CASOB (CASOB (Sicklepod); rate 0.1250 kg/ha): 7.0
Preemergence herbicidal rating CASOB (CASOB (Sicklepod); rate 0.2500 kg/ha): 9.0
ZEAMX herbicidal rating (ZEAMX (Corn, Field); rate 0.0158 kg/ha): 5.0
ZEAMX herbicidal rating (ZEAMX (Corn, Field); rate 0.0315 kg/ha): 5.0
ZEAMX herbicidal rating (ZEAMX (Corn, Field); rate 0.0630 kg/ha): 7.0

Source: US20020137929A1, “1 - (3-heterocyclylphenyl) isothiourea, -isourea, -guanidine and -amidine herbicidal agents” (Intellectual Property Department, BASF Aktiengesellschaft, priority 1998, published 2002)
